This is an account of results in publication PMC8246850, “Functional selective FPR1 signaling in favor of an activation of the neutrophil superoxide generating NOX2 complex” (Journal of Leukocyte Biology, 2020).

The test concerns the target T1, FPR1 (Homo sapiens, UniProt P21462).
T1 sequence (P21462 1-350): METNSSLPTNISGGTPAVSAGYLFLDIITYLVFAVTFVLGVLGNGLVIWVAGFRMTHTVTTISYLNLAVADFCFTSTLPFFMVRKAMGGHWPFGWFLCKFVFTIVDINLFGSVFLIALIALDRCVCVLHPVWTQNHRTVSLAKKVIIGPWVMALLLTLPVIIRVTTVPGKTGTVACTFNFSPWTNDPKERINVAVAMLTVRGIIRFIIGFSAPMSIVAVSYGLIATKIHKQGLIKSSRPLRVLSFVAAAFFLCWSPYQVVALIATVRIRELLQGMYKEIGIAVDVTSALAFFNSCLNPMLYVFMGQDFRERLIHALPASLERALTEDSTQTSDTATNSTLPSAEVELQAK
Nature of the test: human neutrophil NADPH-oxidase (superoxide) and Ca2+ assays with FPR1/FPR2 antagonists and cross-desensitization; weak β-arrestin recruitment in FPR1 CHO cells. The class given is cell-based.

pEC50: −log10 of the molar value.

The pEC50 is the negative decadic logarithm of the EC50, by convention in mol/L. For the substance RE-04-001, the pEC50 was approximately 9.00.
